Entries after “also recorded” stand apart in the source; their conditions may differ.
Legend:
IKZF1 [1] = biological target: T1, IKZF1 (Homo sapiens, UniProt Q13422+Q96SW2); test: Degradation of IKZF upon 24 hours treatment (FIG. 3); type: cell-based; design: endogenous in cells; conditions: 293T WT cells (legend also says Jurkat WT)
Protocol: (§1) The results of an assay for CRBN binding (and degradation of IKZF or actin) upon treatment for 24 hours with exemplary compounds Qi-01-68, JADA53, and positive control lenalidomide (at the indicated concentrations in μM) in 293T WT cells (homo sapiens kidney cell line; wild type) are shown in FIG. 3.

CRBN [2] = biological target: T2, CRBN (Homo sapiens, UniProt Q96SW2); test: CRBN Fluorescence Polarization (FP) displacement assay; type: binding; design: His6 (N); conditions: displacement of Atto565-lenalidomide from DDB1ΔB-CRBN; FIGS. 1, 4, 6A, 7
Protocol: Conditions for CRBN Fluorescence Polarization (FP) displacement assay: Atto565-conjugated lenalidomide (10 nM) was mixed with increasing concentration of purified his6-DDB1AB-his6—CRBN (10 μM final top concentration, 2-fold, 23-point dilution and DMSO control) in 384-well microplates (Corning, 4514) and incubated for 15 minutes (min) at room temperature (rt). The change in fluorescence polarization was monitored using a PHERAstar® FS microplate reader (BMG Labtech) for 20 min in 120 s cycles. The Atto565-lenalidomide bound fraction was calculated and the Kd was obtained from a fit in GraphPad Prism 7. Compounds in Atto565-Lenalidomide displacement assay were dispensed in a 384-well microplate (Corning®, 4514) using D300e Digital Dispenser (HP) normalized to 2% DMSO into 10 nM Atto565-Leanlidomide, 100 nM DDB1ΔB-CRBN, 50 mM Tris pH 7.5, 200 mM NaCl, 0.1% Pluronic® F-68 solution (Sigma), 0.5 mg/ml BSA (Sigma) containing 2% DMSO (4% DMSO final). The change in fluorescence polarization was monitored using a PHERAstar® FS microplate reader (BMG Labtech) for 20 min in 200 s cycles. IC50 values estimated using variable slope equation in GraphPad Prism 7.

IKZF1 [3] = biological target: T1, IKZF1; test: 24 hour IKZF Western Blot in Jurkat cells (FIG. 5), IKZF1; type: cell-based; design: endogenous in cells; host or cells: Jurkat
Protocol: (§2) Exemplary close analogues had low activity against CRBN (FIG. 4). For the IKZF Western Blot, the cell is Jurkat, the exemplary compounds for treatment are JADA3, 32, 53, and lenalidomide, and the time point is 24 hours (FIG. 5).
(§3) Conditions for Western blot:
(§4) Jurkat cells were seeded in 6 well plates, followed by the compound treatment for 24 hours. Primary and secondary antibodies used included anti-IKZF1 at 1:1000 dilution, anti-IKZF2 at 1:1,000 dilution, anti-IKZF3 at 1:1000 dilution, anti-ACTIN at 1:5,000 dilution, IRDye®680 Donkey anti-mouse at 1:5,000 dilution (926-68072, LiCor®, Lot: C61116-05) and IRDye®800 Goat anti-rabbit at 1:5,000 dilution (926-32211, LiCor®, Lot: C70301-05).

CRBN [4] = biological target: T2, CRBN; test: Assay for CRBN binding in the cell, 24 hours treatment (FIG. 3); type: cell-based; design: endogenous in cells; conditions: 293T WT cells (legend also says Jurkat WT)
Protocol: as §1

IKZF3 = biological target: T3, IKZF3 (Homo sapiens, UniProt Q96SW2+Q9UKT9); test: 24 hour IKZF Western Blot in Jurkat cells (FIG. 5), IKZF3; type: cell-based
T3 construct: endogenous in cells; host or cells: Jurkat
Protocol: as §2, §3, §4

T1 sequence (Q13422 whole entry): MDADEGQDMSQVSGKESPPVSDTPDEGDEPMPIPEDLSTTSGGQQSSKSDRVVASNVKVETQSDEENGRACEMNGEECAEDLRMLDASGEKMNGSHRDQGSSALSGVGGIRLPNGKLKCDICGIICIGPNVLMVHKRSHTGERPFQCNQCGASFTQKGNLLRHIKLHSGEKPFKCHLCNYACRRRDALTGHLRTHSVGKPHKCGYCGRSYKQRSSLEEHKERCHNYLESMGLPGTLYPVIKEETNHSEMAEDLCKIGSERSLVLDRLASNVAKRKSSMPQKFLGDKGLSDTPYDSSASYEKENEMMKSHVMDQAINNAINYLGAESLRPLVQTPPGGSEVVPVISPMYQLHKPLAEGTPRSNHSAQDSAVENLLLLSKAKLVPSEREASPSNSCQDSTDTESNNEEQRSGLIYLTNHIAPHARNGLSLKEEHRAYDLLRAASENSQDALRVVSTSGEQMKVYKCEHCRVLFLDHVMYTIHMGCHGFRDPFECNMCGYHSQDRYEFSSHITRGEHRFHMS
T1 sequence (Q96SW2 whole entry): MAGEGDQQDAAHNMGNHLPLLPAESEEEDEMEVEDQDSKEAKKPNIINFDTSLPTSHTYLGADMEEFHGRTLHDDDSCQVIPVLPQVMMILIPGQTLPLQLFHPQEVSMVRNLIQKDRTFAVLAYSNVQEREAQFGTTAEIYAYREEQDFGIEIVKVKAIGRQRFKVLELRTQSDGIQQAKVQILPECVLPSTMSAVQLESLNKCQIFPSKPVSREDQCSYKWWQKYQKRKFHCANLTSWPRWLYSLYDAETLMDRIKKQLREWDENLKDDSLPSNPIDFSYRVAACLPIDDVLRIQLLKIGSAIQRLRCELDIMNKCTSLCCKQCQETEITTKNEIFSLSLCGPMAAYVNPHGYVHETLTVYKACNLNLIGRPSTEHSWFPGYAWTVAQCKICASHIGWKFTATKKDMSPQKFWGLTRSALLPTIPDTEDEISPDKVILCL
T1 sequence (Q16531 whole entry partner): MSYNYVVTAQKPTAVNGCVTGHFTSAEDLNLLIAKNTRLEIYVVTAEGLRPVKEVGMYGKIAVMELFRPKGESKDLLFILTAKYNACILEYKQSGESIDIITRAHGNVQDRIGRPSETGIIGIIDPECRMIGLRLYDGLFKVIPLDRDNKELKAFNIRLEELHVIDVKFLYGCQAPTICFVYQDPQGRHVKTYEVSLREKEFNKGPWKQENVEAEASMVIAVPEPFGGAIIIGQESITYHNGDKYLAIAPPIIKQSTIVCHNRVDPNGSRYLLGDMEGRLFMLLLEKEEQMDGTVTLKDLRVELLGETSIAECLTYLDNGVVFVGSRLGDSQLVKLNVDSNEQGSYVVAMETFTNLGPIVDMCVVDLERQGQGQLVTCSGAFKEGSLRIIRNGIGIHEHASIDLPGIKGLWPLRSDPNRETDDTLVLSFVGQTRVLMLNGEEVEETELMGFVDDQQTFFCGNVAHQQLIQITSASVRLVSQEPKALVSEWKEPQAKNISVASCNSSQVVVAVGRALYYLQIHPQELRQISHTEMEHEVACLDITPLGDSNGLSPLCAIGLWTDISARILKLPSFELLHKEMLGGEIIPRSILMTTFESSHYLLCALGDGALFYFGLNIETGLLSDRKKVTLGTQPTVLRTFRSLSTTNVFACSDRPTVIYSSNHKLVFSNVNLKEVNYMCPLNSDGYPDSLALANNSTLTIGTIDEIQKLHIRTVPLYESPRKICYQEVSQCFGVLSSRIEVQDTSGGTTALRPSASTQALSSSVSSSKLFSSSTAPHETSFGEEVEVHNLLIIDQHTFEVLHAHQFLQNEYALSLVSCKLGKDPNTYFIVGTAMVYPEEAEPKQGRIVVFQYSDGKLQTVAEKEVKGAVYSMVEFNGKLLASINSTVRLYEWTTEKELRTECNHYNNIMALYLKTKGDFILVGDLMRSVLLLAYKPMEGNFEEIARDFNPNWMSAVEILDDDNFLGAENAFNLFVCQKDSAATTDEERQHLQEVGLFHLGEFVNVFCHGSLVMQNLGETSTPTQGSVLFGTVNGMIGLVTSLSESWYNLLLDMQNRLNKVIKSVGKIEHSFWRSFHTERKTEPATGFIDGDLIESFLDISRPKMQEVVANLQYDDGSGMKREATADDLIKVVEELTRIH
T2 sequence (Q96SW2 whole entry): as the sequence (Q96SW2 whole entry) above
T3 sequence (Q9UKT9 whole entry): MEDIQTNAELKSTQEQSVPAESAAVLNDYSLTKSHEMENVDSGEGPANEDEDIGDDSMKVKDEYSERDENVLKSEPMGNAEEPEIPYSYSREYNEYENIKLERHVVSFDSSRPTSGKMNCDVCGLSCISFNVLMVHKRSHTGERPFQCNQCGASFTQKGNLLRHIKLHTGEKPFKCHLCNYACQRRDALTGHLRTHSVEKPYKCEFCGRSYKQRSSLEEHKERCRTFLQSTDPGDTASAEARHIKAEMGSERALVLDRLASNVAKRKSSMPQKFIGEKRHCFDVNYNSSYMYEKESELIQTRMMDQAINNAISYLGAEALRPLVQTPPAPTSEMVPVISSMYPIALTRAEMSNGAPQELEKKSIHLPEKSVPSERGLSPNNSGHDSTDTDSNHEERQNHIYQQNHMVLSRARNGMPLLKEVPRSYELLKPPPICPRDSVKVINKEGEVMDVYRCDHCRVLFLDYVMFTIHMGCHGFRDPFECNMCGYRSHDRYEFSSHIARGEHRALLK
T3 sequence (Q96SW2 whole entry): as the sequence (Q96SW2 whole entry) above
T3 sequence (Q16531 whole entry partner): as the sequence (Q16531 whole entry partner) above

Cc1[nH]c2c(-c3cnn(-c4cc(OCCN)ccn4)c3)cnn2c(=O)c1C(C)C [JADA53]
degradation of IKZF / IKZF1 in cell (IKZF1 [1]): can degrade IKZF; also recorded: degraded IKZF
CRBN binding activity (FP displacement) (CRBN [2]): binds CRBN
degradation of IKZF1 in cells (Western Blot) (IKZF1 [3]): degraded
binding of target CRBN in the cell (CRBN [4]): good binding
degradation of IKZF3 in cells (Western Blot) (IKZF3): degraded

From patent US20220242872A1, “E3 LIGASE BINDERS AND USES THEREOF” (DANA-FARBER CANCER INSTITUTE, INC., priority 2019, published 2022)
